Structures can show the parent of a compound that is named as a salt.
Experiments:
[1] = test system: winter wheat leaf segments; experiment: Senescence bioassay: retention of chlorophyll in excised winter wheat leaf tips; type: in vivo, Triticum aestivum cv. Hereward; conditions: for activity (%) [10^−4 mol · l^−1 BAP = 100%]: chlorophyll retention at concentration with highest activity, 10^−4 M BAP = 100%
Method: Seeds of winter wheat, Triticum aestivum cv. Hereward, were washed under running water for 24 hours and then sown on vermiculite soaked with Knop's solution. They were placed in a growth chamber at 25° C. with a 16/8 h light/dark period at 50 μmol·m^−2·s^−1. After 7 days, the first leaf was fully developed and the second leaf had started to grow. A tip section of the first leaf, approximately 35 mm long, was removed from 5 seedlings and trimmed slightly to a combined weight of 100 mg. The basal ends of the five leaf tips were placed in the wells of a microtiter polystyrene plate containing 150 μl of each tested compound solution. The entire plate was inserted into a plastic box lined with paper tissues soaked in distilled water to prevent leaf sections from drying out. After 96 h incubation in the dark at 25° C., the leaves were removed and chlorophyll extracted by heating at 80° C. for 10 min in 5 ml of 80% ethanol (v/v). The sample volume was then restored to 5 ml by the addition of 80% ethanol (v/v). The absorbance of the extract was recorded at 665 nm. In addition, chlorophyll extracts from fresh leaves and leaf tips incubated in deionised water were measured. […] Relative activity of the compound at this concentration was calculated (Tab. 3). The activity obtained for 10^−4 M 6-benzylaminopurine (BAP) was postulated as 100%. The values shown are means of five replicates and the whole experiment was repeated twice. The tested cytokinin bases were dissolved in dimethylsulfoxide (DMSO) and the solution brought up to 10^−3 M with distilled water. Cytokinin mesylate salts which are more water-soluble (BAP mesylate, meta-topolin mesylate and kinetin mesylate) could be directly dissolved to form a 10^−3 M solution in distilled water.

[2] = test system: K562 (chronic myeloid leukemia); experiment: In vitro cytotoxicity, Calcein AM assay, K-562; type: cell-based; conditions: 3-day Calcein-AM assay
Description: (§1) Because toxic compounds adversely affect cell metabolic processes, many standard cytotoxicity assays are based on measuring the rate of metabolism of various artificial substrates. The resulting product is then quantified, for example, by spectrometry. Assays can be easily modified for use in 96-well plates, A microtiter assay based on the quantification of Calcein AM metabolism was used to evaluate the cytotoxicity of cytokinins, for example meta-topolin, ortho-topolin, kinetin, BAP or its mesylate salts, but also a number of other cytokinin mesylate derivatives according to the invention. The test is widely used in drug screening programs and in chemosensitivity testing. In living cells, Calcein AM is enzymatically hydrolyzed and the accumulation of the resulting calcein is manifested by green fluorescence. […] These cells were maintained in standard DMEM or RPMI medium (Sigma, MO, USA) supplemented with heat-inactivated fetal bovine serum (10%) with 2 mM L-glutamine and penicillin-streptomycin (1%) under standard cell culture conditions (37° C., 5% CO2 in a humid environment) and subcultured two or three times a week using a standard trypsinization procedure. Approximately 10,000 cells in 80 μl of medium were seeded in a 96-well microtiter plate. After 12 hours of incubation, the compounds to be tested were added in 20 μl aliquots. Control cultures were treated with DMSO alone. […] After 72 hours of incubation, Calcein AM solution (Molecular Probes) was added to a final concentration of 1 μg/ml and the cells were incubated for another hour.
(§2) Cytoxicity of compounds was tested on panel of cell lines of different histogenetic and species origin.

[3] = test system: CEM (T-lymphoblastic leukemia); experiment: In vitro cytotoxicity, Calcein AM assay, CEM; type: cell-based; conditions: 3-day Calcein-AM assay
Description: as §1, §2

[4] = test system: cytokinin-dependent tobacco callus; experiment: Tobacco callus biotest (stimulation of plant cell division); type: cell-based, Nicotiana tabacum L. cv. Wisconsin 38; conditions: for activity (%) [10^−5 mol · l^−1 BAP = 100%]: callus growth at concentration with highest activity, 10^−5 M BAP = 100%
Method: Stimulation effect of the cytokinin mesylates was tested in tobacco callus biotest using cytokinin dependent tobacco callus. Cytokinin-dependent tobacco callus Nicotiana tabacum L. cv. […] Subcultivation was carried out every three weeks. Fourteen days before the bioassay, the callus tissue was transferred to the media without BAP. Biological activity was determined from the increase in fresh callus weight after four weeks of cultivation. Five replicates were prepared for each cytokinin concentration and the entire test was repeated twice. […] Relative activity of the compound at this concentration was calculated (Tab. 15). The activity obtained for 10^−5 M 6-benzylaminopurine (BAP) was postulated as 100%. The cytokinin bases to be tested were dissolved in dimethylsulfoxide (DMSO) and the solution brought up to 10^−3 M with distilled water. The mesylate salts were dissolved directly in distilled water.

HOS (human osteosarcoma) = experiment: In vitro cytotoxicity, Calcein AM assay, HOS; type: cell-based; conditions: 3-day Calcein-AM assay
Description: as §1, §2

[5] = test system: MCF-7 (breast adenocarcinoma); experiment: In vitro cytotoxicity, Calcein AM assay, MCF7; type: cell-based; conditions: 3-day Calcein-AM assay
Description: as §1, §2

[6] = test system: HL-60 (promyelocytic, leukemia); experiment: In vitro cytotoxicity, Calcein AM assay, HL60; type: cell-based; conditions: 3-day Calcein-AM assay
Description: as §1, §2

rose explants = experiment: In vitro and post vitro multiplication and rooting of rose; type: in vivo, Rosa multiflora
Method: The aim of this experiment was to test whether the new compounds are of practical use in tissue culture practice. The multiplication rate was investigated and the post vitro effects on rooting were examined Rosa hybrida (pot rose cultivar) was cultured in 350 ml vessels with a screw on polycarbonate lid. Each culture vessel contained 100 ml autoclaved medium (120° C., 20 min). The cultures were maintained at 23±2° C. under a 16 h photoperiod at 40 μM·m^−2 s^−1 PAR. The basal medium (BMR) contained Murashige and Skoog (1962) macroelements, microelements and vitamins, 95 μM NaFeEDTA, 555 μM myo-inositol, 111 mM sucrose, 1.332 mM glycine, 684 μM L-glutamine and 7 g/l agar. This medium was supplemented with 10 μM BAP, mT, or 3MeOBAP, or the corresponding mesylate salts. The control medium didn't contain any cytokinin After a culture period of 8 weeks, the number of induced shoots per explant was determined, as well as root number/explant and total root length/explant. The roots were removed and the explants (shoot clusters) were planted in unfertilised peat. After four weeks of acclimatising in a fog unit, root number and root length was determined. As expected, a cytokinin free medium yielded almost no new shoots. The original shoot explant grew out as a good quality single shoot that rooted very well. […] Explants growing on cytokininin mesylates were characterized by a high multiplication index (a large number of new shoots) and were more rooted in comparison with free bases. The use of cytokinin mesylates led to an increase in all monitored parameters in plant culture compared to free cytokinin bases.

[7] = Aqueous solubility: concentration of saturated solution by HPLC; type: physicochemical; conditions: thermodynamic from solid; saturated solution in water, cytokinin mesylate; read-out: c of CK mesylate
Method: Aqueous solubility was measured using the following protocol. Supersaturated solution of meta-topolin mesylate salt was prepared. The solutions were filtered off from visible undissolved particles of the salt to obtain homogenic saturated solution. Saturated solution was diluted 1:10 000 and measured using HPLC Alliance Waters 2690 with C18 Symmetry column with the diameter 2.1 mm and 150 mm length with a porosity of 5 μm. The sample was dissolved in the mobile phase (MeOH: HCOONH4-1:9). The sample was washed with a methanol gradient (10-90%, 35 min) at pH 4 and a flow rate of 0.3 ml/min. The absorbances of the components were detected in the UV region at 210-400 nm. The peak area of meta-topolin mesylate salt was 595 027. The standard was measured as shown in the Table 9 below, Obtained peak area was compared to area peaks measured at certain concentration and the final concentration of saturated solution was determined
Solubility of other cytokinin (CK) mesylates was also determined by this method and the concentrations of saturated solutions are given below in Table 10: […]

[8] = test system: retinal epitelium cells ARPE-19; experiment: Cytotoxicity for non-cancer cells, resazurine reduction assay, ARPE-19
Method: (§3) It is used for viability testing of both bacterial and eukaryotic cells. […] Cultivation medium was DMEM with 10% FBS. Before the experiment, the cells were subcultured for 2 weeks. For the cytotoxicity evaluation, the cells were trypsinized and pipetted into 96 well plates (5000 cells per well in 80 microliters). After 24 hours, 5× concentrated solutions of the tested compounds in the medium were added. […] IC50 values were calculated from dose response curves using drc library for R programming environment.

skin fibroblasts BJ = experiment: Cytotoxicity for non-cancer cells, resazurine reduction assay, BJ
Method: as §3

keratinocytes HaCaT = experiment: Cytotoxicity for non-cancer cells, resazurine reduction assay, HaCaT
Method: as §3

[9] = Ex vitro, after four weeks of acclimatising in peat
[10] = In vitro, 10 μM cytokinin, 8 weeks

CC(CO)CCNc1ncnc2nc[nH]c12 (racemic) [Dihydrozeatin (DHZ), dihydrozeatin]
activity (%) [10^−4 mol · l^−1 BAP = 100%] [1]: 81% | IC50 ([2]; Homo sapiens, K562, 72 h): > 167 µM | IC50 ([3]; 72 h): > 167 µM | activity (%) [10^−5 mol · l^−1 BAP = 100%] [4]: 78% | IC50 (HOS (human osteosarcoma); Homo sapiens, 72 h): > 167 µM | IC50 ([5]; Homo sapiens, MCF7, 72 h): > 167 µM | IC50 ([6]; Homo sapiens, HL-60, 72 h): > 167 µM

CS(=O)(=O)O.Clc1ccccc1CNc1ncnc2nc[nH]c12 [2ClBAP mesylate, 6-(2-chlorobenzylamino)purine mesylate]
activity (%) [10^−4 mol · l^−1 BAP = 100%] [1]: 122% | IC50 ([2]; mesylate): 90.4 µM | IC50 ([3]; mesylate): 112 µM | activity (%) [10^−5 mol · l^−1 BAP = 100%] [4]: 97% | IC50 (HOS (human osteosarcoma); mesylate): 100 µM | IC50 ([5]; mesylate): 128 µM

CS(=O)(=O)O.Fc1ccccc1CNc1ncnc2nc[nH]c12 [2FBAP mesylate, 6-(2-fluorobenzylamino)purine mesylate]
activity (%) [10^−4 mol · l^−1 BAP = 100%] [1]: 175% | IC50 ([2]; mesylate): 70.7 µM | IC50 ([3]; mesylate): 99.5 µM | activity (%) [10^−5 mol · l^−1 BAP = 100%] [4]: 110% | IC50 ([6]; Homo sapiens, HL-60, 72 h): 126 µM

COc1ccccc1CNc1ncnc2nc[nH]c12.CS(=O)(=O)O [2MeOBAP mesylate, 6-(2-methoxybenzylamino)purine mesylate]
activity (%) [10^−4 mol · l^−1 BAP = 100%] [1]: 271% | IC50 ([2]; mesylate): 117 µM | IC50 ([3]; mesylate): 98.2 µM | activity (%) [10^−5 mol · l^−1 BAP = 100%] [4]: 82% | IC50 ([5]; mesylate): > 167 µM

COc1ccccc1CNc1ncnc2nc[nH]c12 [2MeOBAP, 6-(2-methoxybenzylamino)purine]
IC50 ([2]; Homo sapiens, K562, 72 h): 116 µM | IC50 ([3]; 72 h): 63.4 µM | activity (%) [10^−5 mol · l^−1 BAP = 100%] [4]: 79% | IC50 (HOS (human osteosarcoma); Homo sapiens, 72 h): > 167 µM | IC50 ([5]; Homo sapiens, MCF7, 72 h): 153 µM | IC50 ([6]; Homo sapiens, HL-60, 72 h): > 167 µM

COc1cccc(CNc2ncnc3nc[nH]c23)c1O [2OH3MeOBAP mesylate, 6-(2-hydroxy-3-methoxybenzylamino)purine mesylate]
IC50 ([3]; mesylate): 51 µM | IC50 ([5]; mesylate): 32.1 µM | IC50 ([6]; mesylate): 67.8 µM

COc1cccc(CNc2ncnc3nc[nH]c23)c1O [2OH3MeOBAP, 6-(2-hydroxy-3-methoxybenzylamino)purine]
IC50 ([2]; Homo sapiens, K562, 72 h): > 167 µM | IC50 ([3]; 72 h): 41.6 µM | IC50 ([5]; Homo sapiens, MCF7, 72 h): 26.6 µM | IC50 ([6]; Homo sapiens, HL-60, 72 h): 64.3 µM

COc1cccc(CNc2ncnc3nc[nH]c23)c1.CS(=O)(=O)O [3MeOBAP mesylate, 6-(3-methoxybenzylamino)purine mesylate]
activity (%) [10^−4 mol · l^−1 BAP = 100%] ([1]; listed as 3-MeoBAP mesylate, mesylate): 125% | activity (%) [10^−4 mol · l^−1 BAP = 100%] ([1]; mesylate): 184% | Number of roots per plant (rose explants; [9]): 1.9 | Overall length of plant (cm) (rose explants; [9]): 4.5 cm | Number of new shoots per explant (rose explants; [10]): 4.5 | Number of roots per explant (rose explants; [10]): 0.0 | Overall length of explant (cm) (rose explants; [10]): 0.0 cm | number of flowers per explant (rose explants; [10]): 0.02 | activity (%) [10^−5 mol · l^−1 BAP = 100%] [4]: 83% | solubility thermodynamic [7]: 47.5 mM

Clc1ccc(CNc2ncnc3nc[nH]c23)cc1 [4ClBAP]
IC50 [2]: > 167 µM | IC50 [3]: > 167 µM | IC50 (HOS (human osteosarcoma)): > 167 µM | IC50 [5]: > 167 µM | IC50 [6]: > 167 µM

C/C(=C/CNc1ncnc2nc[nH]c12)CO [Cis-zeatin (cZ), Cis-zeatin]
IC50 [3]: > 167 µM | IC50 (HOS (human osteosarcoma)): > 167 µM | IC50 [5]: > 167 µM | IC50 [6]: > 167 µM

CC(C)=CCNc1ncnc2[nH]cnc12.CS(=O)(=O)O [iP mesylate, N-3-(Methylbut-2-En-1-Yl)-9H-Purin-6-Amin Methanesulphonate]
activity (%) [10^−4 mol · l^−1 BAP = 100%] [1]: 95% | concentration with highest activity ([1]; chlorophyll retention, excised wheat leaf tips, 96 h dark): 10^−4 mol · l^−1 | Cytotoxicity for Fibroblasts (GI20) ARPE-19 [8]: >100 μM | IC50 [2]: 162 µM | Cytotoxicity for Fibroblasts (GI20) BJ (skin fibroblasts BJ): 149.3 µM | Cytotoxicity for Fibroblasts (GI20) HaCaT (keratinocytes HaCaT): >100 µM | IC50 [3]: 128 µM | activity (%) [10^−5 mol · l^−1 BAP = 100%] [4]: 95% | concentration with highest activity ([4]; tobacco callus fresh weight increase, four weeks): 10^−6 mol · l^−1 | IC50 [5]: > 167 µM

From patent publication US12570657B2, “Mesylate salts of heterocyclic cytokinins, compositions containing these derivatives and use thereof” (UNIVERZITA PALACKEHO V OLOMOUCI, priority 2020, dated 2026)
